Assay results from patent US7932384B2, “Reverse-turn mimetics and method relating thereto” (Choongwae Pharma Corporation, priority 2001, dated 2011).

What was measured:
[1] = tested on: PC-12 cells overexpressing PS-1/L286V; assay: Neurite outgrowth and differentiation of PC-12 PS-1/L286V cells; type: cell-based, Rat; conditions: PS-1/L286V mutant PC-12 cells, 10 μM plus NGF
Experimental: Cell Differentiation. Cell culture dishes were pre-coated overnight with 0.25 mg/ml collagen (Cohesion, CA), 10 μg/ml Poly-L-Lysine (Sigma-Aldrich, St. Louis, Mo.) and 12 μg/ml Polyethyleneimine (ICN, La Mesa, Calif.). Cells were cultured on coated dishes at 15,000 cells/cm^2, and differentiated into a neuron-like phenotype by incubation in medium with reduced serum (1% fetal bovine serum), containing 50 ng/ml nerve growth factor (NGF) (Sigma-Aldrich) for 10 days. NGF-containing medium was changed every 2-3 days.
Differentiated PC-12/L286V cells were treated with increasing concentrations of this compound for 4 hours. Transfection was then initiated after this treatment period.
Quantitation of Neurite Outgrowth. Cell counts were taken from six randomly chosen microscopic fields (10×). […] The number of cells with such outgrowths was then expressed as a percentage of the total number of cells. Values obtained were from duplicates of three independent experiments.

cultured tumor cells [2] = assay: Cell death of cultured tumor cells; type: cell-based; conditions: 5.0 μM
cultured tumor cells [3] = assay: FACS analysis of cells in G0, cultured tumor cells; type: cell-based; conditions: 5 μM
HCT116 cells = assay: Flow cytometric analysis (FACS) of cell cycle, HCT116; type: cell-based; conditions: HCT116, 25 μM, 24 hours
Experimental: For FACS analysis, approx. 5×10^6 cells from Compound D-treated or vehicle-treated were fixed with 70% chilled ethanol and stored at −20° C. for at least 30 minutes. The cells were washed once with 1×PBS and incubated with propidium iodine (PI) solution (85 μg/ml propidium iodine, 0.1% Nonidet P-40, 10 mg/ml RNAse) for 30 minutes at room temperature. 10,000 stained cells for each sample were acquired using Beckman Coulter EPICS XL-MCL Flow Cytometry and the percentage of cells in different phase of the cell cycle was determined by Expo32 ADC software (Coulter Corporation, Miami, Fla., 33196).
It has been shown that inhibition of the expression of the cyclin D1 gene causes arrest at the G1/S-phase of the cell cycle (Shintani et al., “Infrequent alternations of RB pathway (Rb-p16INK4A-cyclin D1) in adenoid cystic carcinoma of salivary glands,” Anticancer Res. 20:2169-75 (2000)). […] The cells were subsequently stained with propidium iodide (PI) and analyzed for DNA content by FACS cytofluorometry.

[4] = molecular target: β-catenin/p300 interaction (Homo sapiens, UniProt Q09472); conditions: Emami et al., Cancer Cell, in press; cited from earlier work
Chain of β-catenin/p300 interaction (Q09472 whole entry): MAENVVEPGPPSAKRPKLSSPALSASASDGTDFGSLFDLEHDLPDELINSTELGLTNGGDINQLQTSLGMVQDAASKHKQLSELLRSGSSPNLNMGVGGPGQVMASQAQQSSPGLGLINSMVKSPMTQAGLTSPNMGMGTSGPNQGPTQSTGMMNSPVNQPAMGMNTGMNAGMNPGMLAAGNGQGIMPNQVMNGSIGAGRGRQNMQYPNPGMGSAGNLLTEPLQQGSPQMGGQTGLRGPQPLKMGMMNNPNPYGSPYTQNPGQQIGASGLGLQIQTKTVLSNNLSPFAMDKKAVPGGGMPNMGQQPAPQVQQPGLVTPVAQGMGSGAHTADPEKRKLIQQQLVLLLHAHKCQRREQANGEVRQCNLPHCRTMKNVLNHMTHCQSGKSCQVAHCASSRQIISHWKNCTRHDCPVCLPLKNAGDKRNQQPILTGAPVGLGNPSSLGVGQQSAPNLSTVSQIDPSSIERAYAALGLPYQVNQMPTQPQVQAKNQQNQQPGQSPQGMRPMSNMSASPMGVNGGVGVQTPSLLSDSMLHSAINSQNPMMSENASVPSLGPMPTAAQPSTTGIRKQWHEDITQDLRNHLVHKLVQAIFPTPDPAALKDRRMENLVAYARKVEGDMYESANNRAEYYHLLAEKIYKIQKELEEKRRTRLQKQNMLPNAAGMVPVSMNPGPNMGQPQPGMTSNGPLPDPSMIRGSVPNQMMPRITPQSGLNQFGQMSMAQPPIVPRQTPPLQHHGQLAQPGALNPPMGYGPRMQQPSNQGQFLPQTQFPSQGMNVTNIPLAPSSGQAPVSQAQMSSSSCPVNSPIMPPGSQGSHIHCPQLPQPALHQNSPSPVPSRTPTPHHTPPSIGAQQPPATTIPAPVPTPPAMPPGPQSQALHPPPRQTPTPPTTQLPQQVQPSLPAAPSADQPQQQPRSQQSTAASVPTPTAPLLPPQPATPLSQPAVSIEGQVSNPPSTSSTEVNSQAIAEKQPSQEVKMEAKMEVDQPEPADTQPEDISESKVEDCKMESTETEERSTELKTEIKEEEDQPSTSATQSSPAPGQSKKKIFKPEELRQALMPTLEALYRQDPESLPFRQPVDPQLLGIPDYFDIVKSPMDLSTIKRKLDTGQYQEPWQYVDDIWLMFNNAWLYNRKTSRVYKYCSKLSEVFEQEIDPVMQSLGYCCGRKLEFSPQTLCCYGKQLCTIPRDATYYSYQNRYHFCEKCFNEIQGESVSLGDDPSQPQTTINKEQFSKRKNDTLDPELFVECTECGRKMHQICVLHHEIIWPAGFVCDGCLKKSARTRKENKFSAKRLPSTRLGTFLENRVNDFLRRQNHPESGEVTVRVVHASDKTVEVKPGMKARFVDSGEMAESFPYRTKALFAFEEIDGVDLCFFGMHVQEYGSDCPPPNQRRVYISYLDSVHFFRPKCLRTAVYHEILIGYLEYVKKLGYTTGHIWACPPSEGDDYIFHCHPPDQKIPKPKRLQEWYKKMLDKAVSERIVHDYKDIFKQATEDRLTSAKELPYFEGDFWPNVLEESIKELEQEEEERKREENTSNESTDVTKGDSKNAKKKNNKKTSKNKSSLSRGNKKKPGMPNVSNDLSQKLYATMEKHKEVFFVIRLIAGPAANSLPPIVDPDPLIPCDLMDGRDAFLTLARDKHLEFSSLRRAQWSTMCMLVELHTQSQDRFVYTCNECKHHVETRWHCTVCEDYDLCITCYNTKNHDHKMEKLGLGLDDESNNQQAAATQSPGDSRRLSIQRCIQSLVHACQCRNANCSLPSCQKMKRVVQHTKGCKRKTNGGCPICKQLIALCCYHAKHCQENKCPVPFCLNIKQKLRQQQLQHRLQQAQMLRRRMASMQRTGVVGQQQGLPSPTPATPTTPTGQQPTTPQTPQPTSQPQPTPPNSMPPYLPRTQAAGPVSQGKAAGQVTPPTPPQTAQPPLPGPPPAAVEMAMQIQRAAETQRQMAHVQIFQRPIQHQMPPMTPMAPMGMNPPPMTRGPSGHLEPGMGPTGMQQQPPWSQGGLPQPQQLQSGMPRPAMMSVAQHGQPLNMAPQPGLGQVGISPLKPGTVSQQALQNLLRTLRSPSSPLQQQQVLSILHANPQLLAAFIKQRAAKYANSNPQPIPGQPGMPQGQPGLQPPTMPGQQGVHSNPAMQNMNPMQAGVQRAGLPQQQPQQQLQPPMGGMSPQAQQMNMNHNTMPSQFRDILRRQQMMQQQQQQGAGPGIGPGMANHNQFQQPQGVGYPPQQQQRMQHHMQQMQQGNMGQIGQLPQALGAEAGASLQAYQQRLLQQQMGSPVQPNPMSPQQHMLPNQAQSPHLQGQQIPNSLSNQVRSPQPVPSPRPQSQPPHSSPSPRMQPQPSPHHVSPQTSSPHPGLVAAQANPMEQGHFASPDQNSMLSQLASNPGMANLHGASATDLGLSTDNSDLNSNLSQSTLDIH

PCNA = assay: Real time RT-PCR gene expression, PCNA; type: cell-based; conditions: 25 μM, 24 hours; <0.5 significant decrease, >1.5 significant increase
Experimental: (§1) Real time reverse transcription-PCR analysis was performed according to the protocol provided with the SYBR Green PCR Master Mix Kit (Perkin Elmer Biosystems, Shelton, ST). […] The primers used for the RT-PCR reactions were [NT] and [NT].

caspase 3 = assay: Caspase 3 activity in cultured tumor cells; type: cell-based; conditions: 2.5 μM or 5.0 μM
[5] = tested on: caspase-3/7 in HCT116 cells; assay: Caspase-3/7 activity assay, HCT116; type: cell-based; conditions: HCT116, 25 μM, 24 hours, compared to CCD18Co cells
Experimental: SW480, HCT116, and CCD18Co cells were plated at 10^5 cells per well (96-well plates) for 24 hours prior to treatment. […] 24 hours post treatment, cells were lysed and caspase activity was measured using a caspase-3/7 activity kit (Apo-One Homogeneous caspase-3/7 assay, #G77905, Promega). Relative fluorescence units (RFU) were obtained by subtracting the unit values of the blank (control, without cells) from the experimental measured values.
Caspases are cysteine proteases that are generally activated in a given population of cells triggered by apoptotic stimuli.

SW480 cells = assay: Soft agar colony formation assay; type: cell-based; conditions: SW480, 0.25-5 μM
Experimental: The soft agar colony formation assay was conducted with SW480 cells by some modification of the procedure previously described (Moody et al., “A vasoactive intestinal peptide antagonist inhibits non-small cell lung cancer growth,” Proc. Natl. Acad. Sci. USA. 90:4345-49 (1993)).
Each well (35 mm) of a 6-well plate (Nalge Nunc International, Roskide, Denmark) was coated with 1 ml of 0.8% bottom agar in DMEM medium containing 10% fetal bovine serum. After it was solidified, 1 ml of DMEM medium containing 0.4% top agar, 10% fetal bovine serum, compound doubly concentrated, and 5,000 single viable cells was added to each well. The cultures were incubated at 37° C. in humidified 5% CO2 incubator. Colonies in soft agar were monitored daily and photographed after incubation for 8 days. Colonies>60 μm in diameter were counted.

GADD-153 = assay: Real time RT-PCR gene expression, GADD-153; type: cell-based; conditions: 25 μM, 24 hours; <0.5 significant decrease, >1.5 significant increase
Experimental: as §1

For `O=C1[C@H](Cc2ccc(O)cc2)N2C(=O)CCN(C(=O)NCc3ccccc3)[C@H]2CN1Cc1cccc2ccccc12` [Compound D], the “percentage of cells bearing neurites greater than twice the length of the cell body” value [1] was “substantially increased the percentage of cells bearing neurites”, the “neurite outgrowth and differentiation” value ([1]; 10 days) was “essentially normal neurite outgrowth and differentiation” and the cell death (cultured tumor cells [2]) was “promote cell death”. The “number of cells in G0 (FACS)” value (cultured tumor cells [3]) was “increase the number of cells in G0”, the “cell cycle distribution (FACS, PI)” value (HCT116 cells) was “increased accumulation at G1/S-phase of the cell cycle” and the “blocking of β-catenin/p300 interaction” value [4] was “not the β-catenin/p300 interaction”. For the same molecule, the “Ratio (Treated/DMSO Control) PCNA” value (PCNA) was 0.33, the “caspase 3 activity” value (caspase 3) was “activated the caspase 3 activity” and the caspase-3/7 activity [5] was “specifically and significantly activated the caspase-3/7 pathway”. The “number of colonies formed in soft agar” value (SW480 cells) was “dose dependent decrease in the number of colonies formed” and the “Ratio (Treated/DMSO Control) GADD-153” value (GADD-153) was 7.00.
